Tested on: gray mold fungus (Botrytis cinerea)
Assay: Cucumber leaf disk preventive test against gray mold
Assay type: in vivo
Conditions: single compound, 15° C., four days
Procedure: True leaf of cucumber is punched out with cork borer to 13 mm in diameter to prepare a leaf disk. In 24 well microwell plate that is dispensed with 1 ml 0.8% water agar, the leaf disk is placed such that the upper side of the leaf is in an upward direction. Thereto is added 20 micro liter a testing solution prepared by mixing a dimethyl sulfoxide solution of the present compound (racemate) and a dimethyl sulfoxide solution of trifloxystrobin or pyribencarb to a predetermined concentration to treat the leaf disk. After confirming that the testing medical solution is dried, conidium of gray mold fungus (Botrytis cinerea) is suspended into potato dextrose broth (DIFCO) in a density of about 10^5 conidium/mL and is then subjected to a spray inoculation. After leaving to stand the leaf disk in a growth chamber set up at 15° C. for four days, an onset area on the leaf is measured and then calculated an onset area rate (hereinafter, referred to as an onset area rate of treated group). The same operation is carried out with 20 micro liter water instead of 20 micro liter a testing medicine solution to calculate an onset area rate (hereinafter, referred to an onset area rate of non-treated group). A preventive value is calculated from the above onset area rate of treated group and the onset area rate of non-treated group by the following equation: Preventive value (%)=100×(A−B)/A […] The same operations as described in Test Example 1 are carried out with azoxystrobin, dimoxystrobin, fluoxastrobin, kresoxim-methyl, metominostrobin, orysastrobin, picoxystrobin or pyraclostrobin instead of trifloxystrobin or pyribencarb, so as to calculate respective preventive values. Also for comparison, the same operations as described in Test Example 1 are carried out with the exception that the testing medicine solution is substituted with a predetermined concentration of each dimethyl sulfoxide solution of the present compound (racemate), azoxystrobin, dimoxystrobin, fluoxastrobin, kresoxim-methyl, metominostrobin, orysastrobin, picoxystrobin or pyraclostrobin, so as to calculate respective preventive values. For comparison, the same operations as described in Test Example 1 are carried out with the exception that the testing medicine solution is substituted with a predetermined concentration of each dimethyl sulfoxide solution of trifloxystrobin or pyribencarb, so as to calculate respective preventive values.

[1] = treatment concentration 0.5 ppm
[2] = treatment concentration 5.0 ppm

| SMILES | preventive value (%) [1] | preventive value (%) [2] |
| --- | --- | --- |
| CO/C=C(/C(=O)OC)c1ccccc1Oc1cc(Oc2ccccc2C#N)ncn1 [azoxystrobin] | 43% | 53% |
| CO/C=C(/C(=O)OC)c1ccccc1COc1cccc(C(F)(F)F)n1 [picoxystrobin] | 10% | 30% |
| CNC(=O)/C(=N/OC)c1ccccc1CO/N=C(C)/C(=N/OC)C(/C)=N/OC [orysastrobin] | 10% | 25% |
| CO/N=C(/C(=O)OC)c1ccccc1COc1ccccc1C [kresoxim-methyl] | 47% | 52% |
| CNC(=O)/C(=N/OC)c1ccccc1COc1cc(C)ccc1C [dimoxystrobin] | 48% | 57% |
| CON=C(C(=O)OC)c1ccccc1CON=C(C)c1cccc(C(F)(F)F)c1 [trifloxystrobin] | 10% | 20% |
| COC(=O)NCc1cc(/C(C)=N/OCc2cccc(C)n2)ccc1Cl [pyribencarb] | 42% | 58% |
| COC(=O)N(OC)c1ccccc1COc1ccn(-c2ccc(Cl)cc2)n1 [pyraclostrobin] | 15% | 35% |
| CO/N=C(/C1=NOCCO1)c1ccccc1Oc1ncnc(Oc2ccccc2Cl)c1F [fluoxastrobin] | 43% | 52% |
| CNC(=O)/C(=N/OC)c1ccccc1Oc1ccccc1 [metominostrobin] | 10% | 20% |

Reference: patent US20130045969A1, “PLANT DISEASE CONTROLLING COMPOSITION AND METHOD FOR CONTROLLING PLANT DISEASE” (SUMITOMO CHEMICAL COMPANY, LIMITED, priority 2010, published 2013)
